Test results taken from patent publication US6521623B1, “N,N'-disubstituted benzimidazolone derivatives with affinity at the serotonin and dopamine receptors” (Boehringer Ingelheim Pharma KG, priority 2000, dated 2003).
Like-named read-outs stand apart in the source and are kept apart here.

What was measured:
[1] = target: T1, 5-HT1A (Homo sapiens, UniProt P08908); test: 5HT1A Radioligand Receptor Binding Assay ([3H]-8-OH-DPAT, CHO cell membranes); parameters: expressed in transfected cells; host or cells: CHO cells; conditions: for 5-HT1A Receptor Binding Assay % inhibition (10^−7 M): compound 10^−7 M, singlicate, [3H]-8-OH-DPAT 0.6-0.7 nM
T1 sequence (P08908 1-422): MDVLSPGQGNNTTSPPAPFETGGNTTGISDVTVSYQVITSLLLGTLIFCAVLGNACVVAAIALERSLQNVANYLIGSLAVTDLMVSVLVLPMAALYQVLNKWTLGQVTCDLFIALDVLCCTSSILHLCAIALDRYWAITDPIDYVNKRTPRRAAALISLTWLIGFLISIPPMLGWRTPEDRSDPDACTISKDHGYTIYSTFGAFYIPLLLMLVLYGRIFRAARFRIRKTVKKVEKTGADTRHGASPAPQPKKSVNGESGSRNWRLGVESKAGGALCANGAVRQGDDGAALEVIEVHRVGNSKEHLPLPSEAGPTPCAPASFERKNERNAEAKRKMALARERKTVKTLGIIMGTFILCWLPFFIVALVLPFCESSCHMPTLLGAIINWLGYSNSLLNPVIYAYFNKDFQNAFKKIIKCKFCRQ
Description: 5HT1A Radioligand Receptor Binding Assay
Membranes from CHO cells, expressing 5-HT1A human receptors were suspended in incubation buffer.
Binding assays were performed in MultiProbe 204 pipetting system (Packard), according to a predetermined mapping, consistent with the software Screen. The compounds were tested in singlicate at one concentration (10^−7 M) in a total volume of 1000 μl. 980 μl of diluted membranes, 10 μl DMSO or unlabelled ligand and 10 μl of [^3H]-8-OH-DPAT (0.6-0.7 nM) were incubated for 60 minutes at 27° C. The reaction was stopped by rapid filtration through Tomtec Cell Harvester (48 wells) using Filtermat B (presoaked in 0.1% PEI) filters. Filters were washed with ice-cold 50 mM Tris-HCl (pH 7.4) buffer (9×700 μl), dried, covered with MeltiLex B/HS scintillator sheets (Wallac) and heated at 80° C. to 90° C. for about 10 minutes, transferred into plastic sample bags (Wallac), sealed, and put into 1024 Beta Plate scintillation counter (Wallac). Non-specific binding was determined in the presence of 5-HT (10^−5 M).
The specific radioligand binding to the receptor was defined by the difference between total binding and non-specific binding, determined in the presence of an excess of unlabelled ligand. Results were expressed as percentage of control specific binding obtained in the presence of the compounds. The affinity values (IC50) for the compounds were obtained by a nonlinear least squares regression analysis on the basis of a one binding site model.

[2] = target: T2, D4 human receptors (Homo sapiens, UniProt P21917); test: D4 Radioligand Receptor Binding Assay ([3H] YM-09151-2, CHO cell membranes); conditions: compound 10^−7 M, singlicate, [3H] YM-09151-2 0.15-0.25 nM
T2 construct: expressed in transfected cells; host or cells: CHO cells
T2 sequence (P21917 1-419): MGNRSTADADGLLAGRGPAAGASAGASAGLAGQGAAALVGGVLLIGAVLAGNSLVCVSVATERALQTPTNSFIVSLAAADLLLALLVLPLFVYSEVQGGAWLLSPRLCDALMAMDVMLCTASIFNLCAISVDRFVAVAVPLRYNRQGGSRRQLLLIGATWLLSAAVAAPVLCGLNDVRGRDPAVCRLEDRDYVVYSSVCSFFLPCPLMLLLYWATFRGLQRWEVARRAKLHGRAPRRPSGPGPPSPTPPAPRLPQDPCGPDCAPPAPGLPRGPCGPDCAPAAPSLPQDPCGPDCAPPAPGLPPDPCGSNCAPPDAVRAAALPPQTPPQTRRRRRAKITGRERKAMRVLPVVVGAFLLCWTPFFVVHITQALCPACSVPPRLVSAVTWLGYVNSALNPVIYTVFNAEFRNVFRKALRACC
Description: D4 Radioligand Receptor Binding Assay
Membranes from CHO cells expressing D4 human receptors, were suspended in incubation buffer.
Binding assays were performed in MultiProbe 204 pipetting system (Packard), according to a predetermined mapping, consistent with the software Screen. The compounds were tested in singlicate at one concentration (10^−7 M) in a total volume of 1000 μl (980 μl of diluted membranes, 10 μl DMSO or unlabelled ligand and 10 μl of [^3H] YM-09151-2 (0.15-0.25 nM). After incubation for 120 minutes at 27° C., the reaction was stopped by rapid filtration through Tomtec Cell Harvester (48 wells) using Filtermat B (presoaked in 0.1% PEI) filters. Filters were washed with ice-cold 50 mM Tris-HCl (pH 7.4) buffer (9×700 μl), dried, covered with MeltiLex B/HS (Wallac) scintillator sheets and heated in oven at 80° C. to 90° C. for about 10 minutes, transferred into plastic sample bags (Wallac), sealed, and put into 1024 Beta Plate scintillation counter (Wallac). Non-specific binding was determined in the presence of clozapine dissolved in DMSO to a final concentration of 10^−5 M.
The specific radioligand binding to the receptor was defined by the difference between total binding and non-specific binding, determined in the presence of an excess of unlabelled ligand. Results were expressed as percentage of control specific binding obtained in the presence of the compounds.

[3] = [3H]-8-OH-DPAT, CHO membranes, human 5-HT1A, read-out: 5-HT1A Receptor Binding IC50

5-HT1A Receptor Binding Assay % inhibition (10^−7 M) ([1]; CHO membranes, human 5-HT1A) [%] | D4 Receptor Binding Assay % inhibition (10^−7 M) [2] [%] | IC50 [1, 3] [nM] | SMILES | IC50 [1] [nM]
56 | 38 | – | COCCn1c(=O)n(CCCCN2CCN(c3ccccc3)CC2)c2ccccc21 [Compound 1] | –
77 | 91 | – | COCCn1c(=O)n(CCCCN2CCc3c([nH]c4ccccc34)C2)c2ccccc21 [Compound 7] | –
48 | 90 | – | COCCn1c(=O)n(CCCCN2CCN(c3ccc(Cl)c(Cl)c3)CC2)c2ccccc21 [Compound 11] | –
69 | 32 | – | COCCn1c(=O)n(CCCCN2CCN(c3ccccc3OC)CC2)c2ccccc21 [Compound 19] | –
50 | 60 | – | O=c1n(CCCCN2CCN(c3ccccc3)CC2)c2ccccc2n1CCN1CCCCC1 [Compound 20] | –
73 | 48 | – | O=c1n(CCCCN2CCN(c3ccccn3)CC2)c2ccccc2n1CCN1CCCCC1 [Compound 23] | –
90 | 67 | – | O=c1n(CCCCN2CCN(c3cccc(Cl)c3)CC2)c2ccccc2n1CCN1CCCCC1 [Compound 24] | –
48 | 44 | – | O=c1n(CCCCN2CCN(c3ncccn3)CC2)c2ccccc2n1CCN1CCCCC1 [Compound 25] | –
70 | 94 | – | O=c1n(CCCCN2CCc3c([nH]c4ccccc34)C2)c2ccccc2n1CCN1CCCCC1 [Compound 26] | –
89 | 35 | – | O=c1n(CCCCN2CCN(c3cccc(C(F)(F)F)c3)CC2)c2ccccc2n1CCN1CCCCC1 [Compound 28] | –
44 | 90 | – | O=c1n(CCCCN2CCN(c3ccc(Cl)c(Cl)c3)CC2)c2ccccc2n1CCN1CCCCC1 [Compound 30] | –
92 | 78 | – | COc1ccccc1N1CCN(CCCCn2c(=O)n(CCN3CCCCC3)c3ccccc32)CC1 [Compound 38] | –
36 | 42 | – | O=c1n(CCCCN2CCN(c3ccccc3)CC2)c2ccccc2n1CCN1CCOCC1 [Compound 39] | –
104 | 55 | – | O=c1n(CCCCN2CCN(c3cccc(Cl)c3)CC2)c2ccccc2n1CCN1CCOCC1 [Compound 43] | –
63 | 71 | – | O=c1n(CCO)c2ccccc2n1CCCCN1CCN(c2ccccc2)CC1 [Compound 56] | –
75 | 51 | – | O=c1n(CCO)c2ccccc2n1CCCCN1CCN(c2ccccn2)CC1 [Compound 59] | –
65 | 99 | – | O=c1n(CCO)c2ccccc2n1CCCCN1CCN(c2ccc(Cl)c(Cl)c2)CC1 [Compound 66] | –
– | – | 8.2 | COCCn1c(=O)n(C/C=C/CN2CCN(c3ccccn3)CC2)c2ccccc21 [Compound 296] | –
– | – | 15 | O=c1n(C/C=C\CN2CCN(c3ccccc3)CC2)c2ccccc2n1CCN1CCCCC1 [Compound 310] | –
– | – | 3.1 | O=c1n(C/C=C\CN2CCN(c3cccc(C(F)(F)F)c3)CC2)c2ccccc2n1CCN1CCCCC1 [Compound 318] | –

5-HT1A Receptor Binding Assay % inhibition (10^−7 M) ([1]; CHO membranes, human 5-HT1A) [%] | D4 Receptor Binding Assay % inhibition (10^−7 M) [2] [%] | IC50 [1, 3] [nM] | SMILES | IC50 [1] [nM]
– | – | 7.9 | O=c1n(C/C=C/CN2CCN(c3ccccn3)CC2)c2ccccc2n1CCN1CCCCC1 [Compound 330] | –
– | – | 16 | O=c1n(C/C=C/CN2CCc3c([nH]c4ccccc34)C2)c2ccccc2n1CCN1CCCCC1 [Compound 333] | –
– | – | 3.5 | O=c1n(C/C=C/CN2CCN(c3cccc(C(F)(F)F)c3)CC2)c2ccccc2n1CCN1CCCCC1 [Compound 335] | –
– | – | 13 | O=c1n(C/C=C/CN2CCN(c3ccccn3)CC2)c2ccccc2n1CCN1CCOCC1 [Compound 347] | –
– | – | 4.1 | O=c1n(C/C=C/CN2CCN(c3cccc(C(F)(F)F)c3)CC2)c2ccccc2n1CCN1CCOCC1 [Compound 352] | –
– | – | 3.5 | O=c1n(C/C=C\CN2CCN(c3cccc(C(F)(F)F)c3)CC2)c2ccccc2n1CCO [Compound 369] | –
– | – | – | O=c1n(C/C=C\CN2CC=C(c3ccccc3)CC2)c2ccccc2n1CCO [Compound 370] | 4.4
– | – | 44 | O=c1n(C/C=C/CN2CCN(c3ccccn3)CC2)c2ccccc2n1CCO [Compound 381] | –
– | – | 14 | CCNC(=O)OCCn1c(=O)n(C/C=C/CN2CCN(c3ccccn3)CC2)c2ccccc21 [Compound 415] | –
– | – | 7.9 | CCNC(=O)OCCn1c(=O)n(C/C=C/CN2CCN(c3cccc(Cl)c3)CC2)c2ccccc21 [Compound 416] | –
– | – | 7.3 | CC(=O)NCCn1c(=O)n(CCN2CCN(c3cccc(C)c3C)CC2)c2ccccc21 [Compound 446] | –
– | – | 8.8 | CC(=O)NCCn1c(=O)n(C/C=C\CN2CCN(c3cccc(C(F)(F)F)c3)CC2)c2ccccc21 [Compound 459] | –
– | – | 3.1 | CC(=O)NCCn1c(=O)n(C/C=C\CN2CCN(c3cccc(C)c3C)CC2)c2ccccc21 [Compound 468] | –
– | – | 3.1 | CC(=O)NCCn1c(=O)n(C/C=C\CN2CCN(c3ccccc3Cl)CC2)c2ccccc21 [Compound 472] | –
– | – | 2.8 | CS(=O)(=O)NCCn1c(=O)n(C/C=C\CN2CCN(c3cccc(C(F)(F)F)c3)CC2)c2ccccc21 [Compound 503] | –
– | – | – | CS(=O)(=O)NCCn1c(=O)n(C/C=C\CN2CC=C(c3ccccc3)CC2)c2ccccc21 [Compound 504] | 3.6
– | – | 0.59 | Cc1cccc(N2CCN(C/C=C\Cn3c(=O)n(CCNS(C)(=O)=O)c4ccccc43)CC2)c1C [Compound 512] | –
– | – | 8.1 | CS(=O)(=O)NCCn1c(=O)n(C/C=C/CN2CCN(c3ccccn3)CC2)c2ccccc21 [Compound 520] | –
– | – | 9.5 | Cc1cccc(N2CCN(C/C=C/Cn3c(=O)n(CCNS(C)(=O)=O)c4ccccc43)CC2)c1 [Compound 536] | –

SMILES | 5-HT1A Receptor Binding Assay % inhibition (10^−7 M) ([1]; CHO membranes, human 5-HT1A) [%] | D4 Receptor Binding Assay % inhibition (10^−7 M) [2] [%] | IC50 [1, 3] [nM] | IC50 [1] [nM]
COCCn1c(=O)n(CCCCN2CC=C(c3ccccc3)CC2)c2ccccc21 [Compound 10] | 60 | 47 | – | –
O=c1n(CCCCN2CC=C(c3ccccc3)CC2)c2ccccc2n1CCN1CCCCC1 [Compound 29] | 57 | 83 | – | –
O=c1n(CCO)c2ccccc2n1CCCCN1CC=C(c2ccccc2)CC1 [Compound 65] | 52 | 74 | – | –
